The numbers were not newly measured in patent US20040266650A1, “Washing and/or cleaning article” (priority 2001, published 2004), which cites them from elsewhere.

Converted amounts (≈) assume the structure as drawn. Like-named read-outs stand apart in the source and are kept apart here.

As to `O=C(O)CC(O)C(=O)O` (racemic) [DL-Malic acid], the Solubility (commonly the concentration that dissolves in the medium under given conditions) reads like this: (Table 2, in water at 26° C.) 1440 mg/mL (≈ 10700 mM); (Table 3, in water at 26° C.) 1440 mg/mL (≈ 10700 mM). In the case of `[Cl-].[Cs+]` [Cesium chloride], the Solubility (Table 2, in water at 20° C.) was 1800 mg/mL. Turning to `O=C[C@H](O)[C@@H](O)[C@@H](O)[C@H](O)CO` [D(+)-Galactose], the Solubility (Table 2, in water at 25° C.) was 680 mg/mL (≈ 3770 mM).

Take `O=C(CO)[C@@H](O)[C@H](O)[C@@H](O)CO` [L-(−)-Sorbose]: the Solubility (Table 2, in water at 17° C.) was 550 mg/mL (≈ 3050 mM). With `O=C(O)/C=C\C(=O)O` [Maleic acid], the Solubility is, setting by setting: (Table 2, in water at 25° C.) 788 mg/mL (≈ 6790 mM); (Table 3, in water at 25° C.) 788 mg/mL (≈ 6790 mM).

As to `[Cl-].[K+]` [Potassium chloride], the Solubility (Table 2, in water at 20° C.) was 340 mg/mL.

With `NC(N)=O` [Urea], under “Table 2, in water at 20° C.”, the Solubility was 1080 mg/mL (≈ 18000 mM). Turning to `[Cl-].[Cl-].[Zn+2]` [Zinc chloride], the Solubility (Table 2, in water at 20° C.) was 3680 mg/mL. For Sodium polyphosphate, the Solubility (Table 2, in water at 20° C.) was 1000 mg/mL and the Solubility (Table 3, in water, no temperature printed (Table 2: 20° C.)) was 1000 mg/mL.
